Laboratory results published in PubChem BioAssay AID328 (DTP/NCI, 2004).
“And” between values parts separate entries of the source, which are not always exact repeats. Equal entries are not always repeated. Toxic doses and inconclusive results are not listed.

Test system: BDF1 mice, P388 leukemia ip, median survival T/C
Experiment: NCI In Vivo Anticancer Drug Screen. Data for tumor model P388 Leukemia (intraperitoneal) in B6D2F1 (BDF1) mice
Conditions: endpoint: median survival time, higher = longer survival
How it was run: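 Transplantable tumour in mice; compound vs vehicle dosing; survival scored; ratio of treated to control reported.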

[1] = dose: 50.0 mg/kg/injection, schedule: Q04DX003 (ip), vehicle: Klucel (hydroxypropylcellulose) (HPC)
[2] = dose: 100.0 mg/kg/injection, schedule: Q01DX009 (ip), vehicle: other
[3] = dose: 200.0 mg/kg/injection, schedule: Q01DX009 (ip), vehicle: other
[4] = dose: 400.0 mg/kg/injection, schedule: Q01DX009 (ip), vehicle: other
[5] = dose: 200.0 mg/kg/injection, schedule: Q01DX009 (ip), vehicle: saline with Tween-80
[6] = dose: 12.5 mg/kg/injection, schedule: Q01DX009 (ip), vehicle: saline with Tween-80
[7] = dose: 25.0 mg/kg/injection, schedule: Q01DX009 (ip), vehicle: saline with Tween-80

Q: What does the source list for `CC[C@@]1(O)C(=O)OCc2c1cc1n(c2=O)Cc2cc3c(OC)cccc3nc2-1`?
A: T/C (dose: 0.5 mg/kg/injection, schedule: Q01DX009 (ip), vehicle: carboxymethylcellulose (CMC)): 182 % of control; T/C (dose: 1.0 mg/kg/injection, schedule: Q01DX009 (ip), vehicle: carboxymethylcellulose (CMC)): 195 % of control

Q: With `O=C(/C=C/c1ccc2c(c1)OCO2)c1ccc([N+](=O)[O-])cc1` as the compound, how does the T/C (dose: 6.25 mg/kg/injection, schedule: Q04DX003 (ip), vehicle: Klucel (hydroxypropylcellulose) (HPC)) read?
A: Its T/C is 100 % of control.

Q: What about the T/C (dose: 12.5 mg/kg/injection, schedule: Q04DX003 (ip), vehicle: Klucel (hydroxypropylcellulose) (HPC)) of the same compound?
A: The T/C was 100 % of control.

Q: What about the T/C (dose: 25.0 mg/kg/injection, schedule: Q04DX003 (ip), vehicle: Klucel (hydroxypropylcellulose) (HPC)) of the same compound?
A: Its T/C is 100 % of control.

Q: What about the T/C [1] of the same compound?
A: Its T/C is 86 % of control.

Q: What about the T/C (dose: 100.0 mg/kg/injection, schedule: Q01DX001 (ip), vehicle: Klucel (hydroxypropylcellulose) (HPC)) of the same compound?
A: The T/C was 105 % of control.

Q: And the T/C (dose: 200.0 mg/kg/injection, schedule: Q01DX001 (ip), vehicle: Klucel (hydroxypropylcellulose) (HPC))?
A: The T/C was 90 % of control.

Q: What about the T/C (dose: 400.0 mg/kg/injection, schedule: Q01DX001 (ip), vehicle: Klucel (hydroxypropylcellulose) (HPC)) of the same compound?
A: The T/C was 92 % of control.

Q: What does the source list for `COc1cccc(C(=O)O)c1OS(=O)(=O)c1ccc(C)cc1`?
A: T/C (dose: 25.0 mg/kg/injection, schedule: Q01DX009 (ip), vehicle: other): 108 % of control; T/C (dose: 50.0 mg/kg/injection, schedule: Q01DX009 (ip), vehicle: other): 100 % of control; T/C [2]: 100 % of control; T/C [3]: 101 % of control; T/C [4]: 103 % of control

Q: Which T/C (dose: 115.0 mg/kg/injection, schedule: Q01DX010 (ip), vehicle: saline) does the source give for `O=C(CCc1ccc(O)cc1)c1c(O)cc(O)cc1OC1OC(CO)C(O)C(O)C1O` (stereo unspecified) here?
A: The T/C was 100 % of control.

Q: What about the T/C (dose: 175.0 mg/kg/injection, schedule: Q01DX010 (ip), vehicle: saline) of the same compound?
A: The T/C was 109 % of control.

Q: And the T/C (dose: 265.0 mg/kg/injection, schedule: Q01DX010 (ip), vehicle: saline)?
A: The T/C was 100 % of control.

Q: And the T/C (dose: 400.0 mg/kg/injection, schedule: Q01DX010 (ip), vehicle: saline)?
A: Its T/C is 95 % of control.

Q: Which results are given for `CN(C)CCCOC(=O)CC(C)(C)C`?
A: T/C (dose: 50.0 mg/kg/injection, schedule: Q01DX005 (ip), vehicle: water): 91 % of control; T/C (dose: 100.0 mg/kg/injection, schedule: Q01DX005 (ip), vehicle: water): 94 % of control

Q: What does the source list for `C/C(=N\Nc1ccc([N+](=O)[O-])cc1[N+](=O)[O-])C(F)(F)F`?
A: T/C (dose: 44.0 mg/kg/injection, schedule: Q01DX009 (ip), vehicle: other): 95 % of control; T/C (dose: 66.0 mg/kg/injection, schedule: Q01DX009 (ip), vehicle: other): 100 % of control; T/C [2]: 100 % of control; T/C (dose: 100.0 mg/kg/injection, schedule: Q04DX003 (ip), vehicle: Klucel (hydroxypropylcellulose) (HPC)): 100 % of control; T/C (dose: 150.0 mg/kg/injection, schedule: Q01DX009 (ip), vehicle: other): 95 % of control; T/C [5]: 115 % of control; T/C (dose: 200.0 mg/kg/injection, schedule: Q04DX003 (ip), vehicle: Klucel (hydroxypropylcellulose) (HPC)): 100 % of control; T/C (dose: 400.0 mg/kg/injection, schedule: Q01DX009 (ip), vehicle: saline with Tween-80): 100 % of control; T/C (dose: 400.0 mg/kg/injection, schedule: Q04DX003 (ip), vehicle: Klucel (hydroxypropylcellulose) (HPC)): 100 % of control

Q: `CN(C)N=Nc1cc(Cl)cc(C(N)=O)c1Cl` was tested. Which T/C [6] did it give?
A: Its T/C is 108 % of control.

Q: And the T/C [7]?
A: Its T/C is 104 % of control.

Q: And the T/C (dose: 50.0 mg/kg/injection, schedule: Q01DX009 (ip), vehicle: saline with Tween-80)?
A: Its T/C is 104 % of control.

Q: What about the T/C (dose: 88.0 mg/kg/injection, schedule: Q01DX009 (ip), vehicle: saline with Tween-80) of the same compound?
A: The T/C was 108 % of control.

Q: What about the T/C (dose: 177.0 mg/kg/injection, schedule: Q01DX009 (ip), vehicle: saline with Tween-80) of the same compound?
A: Its T/C is 95 % of control.

Q: And the T/C (dose: 266.0 mg/kg/injection, schedule: Q01DX009 (ip), vehicle: saline with Tween-80)?
A: Its T/C is 87 % of control.

Q: `CN(N=O)C(=O)NC(N)=O` was tested. Which T/C (dose: 1.5 mg/kg/injection, schedule: Q01DX009 (ip), vehicle: saline) did it give?
A: The T/C was 99 % of control.

Q: And the T/C (dose: 2.3 mg/kg/injection, schedule: Q01DX009 (ip), vehicle: saline)?
A: Its T/C is 115 % of control.

Q: What about the T/C (dose: 5.4 mg/kg/injection, schedule: Q01DX009 (ip), vehicle: saline) of the same compound?
A: The T/C was 152 % of control.

Q: And the T/C (dose: 11.0 mg/kg/injection, schedule: Q01DX009 (ip), vehicle: Klucel (hydroxypropylcellulose) (HPC))?
A: Its T/C is 161 % of control.

Q: What about the T/C (dose: 12.0 mg/kg/injection, schedule: Q04DX003 (ip), vehicle: Klucel (hydroxypropylcellulose) (HPC)) of the same compound?
A: The T/C was 118 % of control.

Q: And the T/C (dose: 12.5 mg/kg/injection, schedule: Q01DX009 (ip), vehicle: Klucel (hydroxypropylcellulose) (HPC))?
A: The T/C was 155 % of control.

Q: What about the T/C (dose: 12.5 mg/kg/injection, schedule: Q01DX009 (ip), vehicle: saline) of the same compound?
A: Its T/C is 165 % of control and 174 % of control.

Q: And the T/C (dose: 16.0 mg/kg/injection, schedule: Q01DX009 (ip), vehicle: Klucel (hydroxypropylcellulose) (HPC))?
A: The T/C was 186 % of control.

Q: What about the T/C (dose: 16.5 mg/kg/injection, schedule: Q01DX009 (ip), vehicle: Klucel (hydroxypropylcellulose) (HPC)) of the same compound?
A: The T/C was 250 % of control and 161 % of control.

Q: And the T/C (dose: 18.0 mg/kg/injection, schedule: Q01DX009 (ip), vehicle: saline)?
A: The T/C was 170 % of control.

Q: And the T/C (dose: 22.0 mg/kg/injection, schedule: Q04DX003 (ip), vehicle: Klucel (hydroxypropylcellulose) (HPC))?
A: Its T/C is 122 % of control.

Q: What about the T/C (dose: 25.0 mg/kg/injection, schedule: Q01DX009 (ip), vehicle: Klucel (hydroxypropylcellulose) (HPC)) of the same compound?
A: The T/C was 159 % of control and 207 % of control.

Q: And the T/C (dose: 37.5 mg/kg/injection, schedule: Q01DX009 (ip), vehicle: Klucel (hydroxypropylcellulose) (HPC))?
A: The T/C was 100 % of control and 105 % of control.

Q: And the T/C (dose: 50.0 mg/kg/injection, schedule: Q01DX009 (ip), vehicle: saline)?
A: Its T/C is 105 % of control.

Q: And the T/C [1]?
A: The T/C was 200 % of control.

Q: And the T/C (dose: 75.0 mg/kg/injection, schedule: Q04DX003 (ip), vehicle: Klucel (hydroxypropylcellulose) (HPC))?
A: The T/C was 122 % of control.

Q: What does the source list for `O=[N+]([O-])c1ccc2c(c1)CCCC2`?
A: T/C [2]: 113 % of control; T/C (dose: 100.0 mg/kg/injection, schedule: Q04DX003 (ip), vehicle: other): 109 % of control; T/C [3]: 118 % of control; T/C (dose: 200.0 mg/kg/injection, schedule: Q04DX003 (ip), vehicle: other): 118 % of control; T/C [4]: 122 % of control; T/C (dose: 400.0 mg/kg/injection, schedule: Q04DX003 (ip), vehicle: other): 113 % of control

Q: With `COc1cccc(N2C(=O)CSC2=S)c1` as the compound, how does the T/C (dose: 100.0 mg/kg/injection, schedule: Q01DX009 (ip), vehicle: saline with Tween-80) read?
A: The T/C was 91 % of control.

Q: What about the T/C [5] of the same compound?
A: The T/C was 100 % of control.

Q: Which results are given for `Clc1ccc(OCc2sc3ccc(Cl)cc3c2CN2CCCCC2)cc1`?
A: T/C (dose: 25.0 mg/kg/injection, schedule: Q04DX003 (ip), vehicle: saline with Tween-80): 100 % of control; T/C (dose: 50.0 mg/kg/injection, schedule: Q04DX003 (ip), vehicle: saline with Tween-80): 90 % of control; T/C (dose: 100.0 mg/kg/injection, schedule: Q04DX003 (ip), vehicle: saline with Tween-80): 90 % of control

Q: What does the source list for `CB1NN=C(C)c2ccsc21`?
A: T/C (dose: 6.25 mg/kg/injection, schedule: Q01DX009 (ip), vehicle: saline with Tween-80): 105 % of control; T/C [6]: 91 % of control; T/C [7]: 95 % of control

Q: Which results are given for `Nc1nc(Cl)nc2c1ncn2C1OC(CO)C(O)C1O` (stereo unspecified)?
A: T/C (dose: 12.5 mg/kg/injection, schedule: Q01DX010 (ip), vehicle: carboxymethylcellulose (CMC)): 123 % of control; T/C (dose: 50.0 mg/kg/injection, schedule: Q01DX010 (ip), vehicle: carboxymethylcellulose (CMC)): 161 % of control; T/C (dose: 100.0 mg/kg/injection, schedule: Q01DX010 (ip), vehicle: carboxymethylcellulose (CMC)): 238 % of control; T/C (dose: 112.5 mg/kg/injection, schedule: Q01DX009 (ip), vehicle: saline): 159 % of control and 191 % of control; T/C (dose: 168.75 mg/kg/injection, schedule: Q01DX009 (ip), vehicle: saline): 177 % of control

Q: Which T/C (dose: 0.88 mg/kg/injection, schedule: Q01DX009 (ip), vehicle: saline) does the source give for `C=C1C(=O)O[C@@H]2C[C@@H](C)[C@@H]3C=CC(=O)[C@@]3(C)[C@@H](O)[C@H]12` here?
A: Its T/C is 109 % of control.

Q: And the T/C (dose: 1.3 mg/kg/injection, schedule: Q01DX009 (ip), vehicle: saline)?
A: The T/C was 113 % of control.

Q: What about the T/C (dose: 2.0 mg/kg/injection, schedule: Q01DX009 (ip), vehicle: saline + alcohol) of the same compound?
A: The T/C was 116 % of control.

Q: And the T/C (dose: 4.0 mg/kg/injection, schedule: Q01DX010 (ip), vehicle: other)?
A: Its T/C is 116 % of control.

Q: And the T/C (dose: 5.0 mg/kg/injection, schedule: Q01DX009 (ip), vehicle: saline + alcohol)?
A: The T/C was 116 % of control.

Q: And the T/C (dose: 5.0 mg/kg/injection, schedule: Q01DX009 (ip), vehicle: saline with Tween-80)?
A: The T/C was 109 % of control.

Q: What about the T/C (dose: 5.0 mg/kg/injection, schedule: Q01DX010 (ip), vehicle: other) of the same compound?
A: The T/C was 112 % of control.

Q: What about the T/C (dose: 6.0 mg/kg/injection, schedule: Q01DX010 (ip), vehicle: other) of the same compound?
A: Its T/C is 116 % of control.

Q: What about the T/C (dose: 8.0 mg/kg/injection, schedule: Q01DX009 (ip), vehicle: alcohol) of the same compound?
A: Its T/C is 163 % of control.

Q: What about the T/C (dose: 8.0 mg/kg/injection, schedule: Q01DX009 (ip), vehicle: saline + alcohol) of the same compound?
A: Its T/C is 168 % of control.

Q: And the T/C (dose: 8.0 mg/kg/injection, schedule: Q01DX010 (ip), vehicle: other)?
A: The T/C was 116 % of control.
